{"source": "patent US20240158418A1", "about": "(C4 Therapeutics, Inc., priority 2021, published 2024)", "key": {"pERK": {"test_system": "pERK", "experiment": "Western blot NCI-H3255, Compound 1 with or without osimertinib: phospho-ERK", "format": "cell-based, human", "details": "NCI-H3255, six hours, 0-1,500 nM, presence and absence of 1,500 nM osimertinib", "text": "The compound bearing solutions were formulated to achieve a 0.1% final concentration of DMSO. […] Antibodies used in western blot were purchased from the following vendors: EGFR-L858R specific antibody (CST 3197), pY1068 EGFR (CST 2234), pERK (CST 4370), ERK (CST 4695), vinculin (Millipore 05-386)."}, "[1]": {"molecular_target": "T1, Phospho-EGFR Receptor Tyr1068 (Homo sapiens, UniProt P00533, L858R/T790M)", "T1 construct": "female BALB/c nude mice bearing NCI-H1975 NSCLC tumors; from tissue; host or cells: NCI-H1975 subcutaneous xenograft tumours from female BALB/c nude mice", "experiment": "Phospho-EGFR in NCI-H1975 tumors after single oral dose (western blot)", "format": "in vivo, female BALB/c nude mice", "protocol": "Compound 1 was administered as a single oral (PO) dose at 10, 25, or 50 mg/kg to female BALB/c nude mice with NCI-H1975 tumors. At 4h, 6h or 12h tumors were harvested and the protein expression of mutant EGFR-L858R and phospho-EGFR was measured by western blot.\nA xenograft study was conducted in female BALB/c nude mice bearing NCI-H1975 NSCLC tumors. Female nude mice were inoculated subcutaneously in the right flank with 5×10^6 tumors cells in 0.1 mL of PBS. Tumor volume was measured twice weekly in two dimensions using calipers, and volume (mm^3) was calculated using the formula: V=0.5 a×b2 where a and b are the long and short diameters of the tumor in mm, respectively. […]\nAll agents were administered to mice bearing NCI-H1975 tumors on day 0 as a single oral (PO) dose. […] Protein concentration was quantified using a Pierce™ BCA Protein Assay Kit, samples were reduced, and equal protein amounts were then loaded onto a western blot gel for analysis. Tumors were analyzed for EGFR Receptor L858R Mutant Specific (CST, 3197) or Phospho-EGFR Receptor Tyr1068 (CST, 2234) expression. The intensity of individual bands was measured for data analysis using Image Studio software. Protein expression was quantitated in relation to the reference protein, alpha-tubulin, to control for total protein concentration. […]"}}, "data": [{"smiles": "O=C1CC[C@H](Nc2ccc(N3CCC(O)(CC(=O)N4CC5(C4)CN(c4ccc(-c6cc(F)c7c(c6)C(=O)N(C(C(=O)Nc6nccs6)c6ncn8c6CCC8)C7)cc4)C5)CC3)c(F)c2)C(=O)N1", "note": "(stereo partly drawn) [Compound 1, 2-(6,7-dihydro-5H-pyrrolo[1,2-c]imidazol-1-yl)-2-[6-[4-[2-[2-[1-[4-[[(3S)-2,6-dioxo-3-piperidyl]amino]-2-fluoro-phenyl]-4-hydroxy-4-piperidyl]acetyl]-2,6-diazaspiro[3.3]heptan-6-yl]phenyl]-4-fluoro-1-oxo-isoindolin-2-yl]-N-thiazol-2-yl-acetamide]", "values": [{"measurement": "phospho-ERK inhibition (western blot)", "setting": "pERK", "value": "inhibited"}, {"measurement": "phospho-EGFR decrease in vivo", "setting": "[1]; after a single oral dose, NCI-H1975 tumors", "value": "> 95", "unit": "%"}, {"measurement": "phospho-EGFR protein expression in tumors", "setting": "[1]; single PO dose 10, 25 or 50 mg/kg, 4, 6 and 12 hours", "value": "phospho-EGFR inhibition"}]}]}
